{"source": "patent US11007274B2", "about": "“Compounds for medicinal applications” (Ausvir Therapeutics Pty LTD, priority 2015, dated 2021)", "key": {"CA/07/2009": {"tested_on": "CA/07/2009", "experiment": "microbe, parasite or virus in culture", "type": "cell-based", "conditions": "unidentified influenza virus, Table 7"}, "Perth/16/2009": {"tested_on": "Perth/16/2009", "experiment": "microbe, parasite or virus in culture", "type": "cell-based", "conditions": "unidentified influenza virus; Table 7"}, "Florida/4/2006": {"tested_on": "Florida/4/2006", "experiment": "microbe, parasite or virus in culture", "type": "cell-based", "conditions": "unidentified influenza virus; Table 7"}, "A/Mississippi/03/01H274Y": {"tested_on": "A/Mississippi/03/01H274Y", "type": "cell-based, influenza virus"}, "[1]": {"tested_on": "Influenza A virus H5N1, Hong Kong/213/2003", "experiment": "microbe, parasite or virus in culture", "type": "cell-based", "conditions": "Influenza A virus, H5N1"}, "[2]": {"tested_on": "Influenza A virus H5N1, Hong Kong/213/2003", "experiment": "microbe, parasite or virus in culture", "type": "cell-based", "conditions": "Influenza A virus, H5N1", "remark": "listed apart in the source"}, "[3]": {"tested_on": "Influenza A virus H3N2, Perth/16/2009", "experiment": "microbe, parasite or virus in culture", "type": "cell-based"}, "[4]": {"tested_on": "Influenza A virus H3N2, Perth/16/2009", "experiment": "microbe, parasite or virus in culture", "type": "cell-based", "conditions": "Table 11, Neutral Red, read-out: EC50"}, "[5]": {"tested_on": "Influenza A virus H1N1, California/07/2009", "experiment": "microbe, parasite or virus in culture", "type": "cell-based"}, "[6]": {"tested_on": "Influenza A virus H1N1, California/07/2009", "experiment": "microbe, parasite or virus in culture", "type": "cell-based", "conditions": "Table 13, Neutral Red, read-out: EC50"}, "[7]": {"tested_on": "Influenza A virus H5N1, Duck/MN/1525/81", "experiment": "microbe, parasite or virus in culture", "type": "cell-based"}, "[8]": {"tested_on": "Influenza B virus, B/Brisbane/60/2008", "experiment": "microbe, parasite or virus in culture", "type": "cell-based"}, "[9]": {"tested_on": "Influenza B virus, B/Brisbane/60/2008", "experiment": "microbe, parasite or virus in culture", "type": "cell-based", "conditions": "Table 18, Neutral Red"}, "[10]": {"tested_on": "Influenza B virus, B/Florida/4/2006", "experiment": "microbe, parasite or virus in culture", "type": "cell-based"}, "[11]": {"tested_on": "Influenza B virus, B/Florida/4/2006", "experiment": "microbe, parasite or virus in culture", "type": "cell-based", "conditions": "Table 19, Neutral Red (Cytopathic effect/Toxicity), B/Florida/4/2006, read-out: EC50"}, "CA/07/2009 virus H1N1": {"tested_on": "CA/07/2009 virus H1N1", "experiment": "Viral Plaque Reduction Assay (Table 22)", "type": "cell-based", "conditions": "Influenza A virus"}, "A/PR/8 virus H1N1": {"tested_on": "A/PR/8 virus H1N1", "experiment": "Viral Plaque Reduction Assay (Table 23)", "type": "cell-based, influenza virus", "conditions": "Influenza A virus"}, "hERG": {"target": "hERG (Homo sapiens, UniProt Q12809)", "sequence (Q12809 whole entry)": "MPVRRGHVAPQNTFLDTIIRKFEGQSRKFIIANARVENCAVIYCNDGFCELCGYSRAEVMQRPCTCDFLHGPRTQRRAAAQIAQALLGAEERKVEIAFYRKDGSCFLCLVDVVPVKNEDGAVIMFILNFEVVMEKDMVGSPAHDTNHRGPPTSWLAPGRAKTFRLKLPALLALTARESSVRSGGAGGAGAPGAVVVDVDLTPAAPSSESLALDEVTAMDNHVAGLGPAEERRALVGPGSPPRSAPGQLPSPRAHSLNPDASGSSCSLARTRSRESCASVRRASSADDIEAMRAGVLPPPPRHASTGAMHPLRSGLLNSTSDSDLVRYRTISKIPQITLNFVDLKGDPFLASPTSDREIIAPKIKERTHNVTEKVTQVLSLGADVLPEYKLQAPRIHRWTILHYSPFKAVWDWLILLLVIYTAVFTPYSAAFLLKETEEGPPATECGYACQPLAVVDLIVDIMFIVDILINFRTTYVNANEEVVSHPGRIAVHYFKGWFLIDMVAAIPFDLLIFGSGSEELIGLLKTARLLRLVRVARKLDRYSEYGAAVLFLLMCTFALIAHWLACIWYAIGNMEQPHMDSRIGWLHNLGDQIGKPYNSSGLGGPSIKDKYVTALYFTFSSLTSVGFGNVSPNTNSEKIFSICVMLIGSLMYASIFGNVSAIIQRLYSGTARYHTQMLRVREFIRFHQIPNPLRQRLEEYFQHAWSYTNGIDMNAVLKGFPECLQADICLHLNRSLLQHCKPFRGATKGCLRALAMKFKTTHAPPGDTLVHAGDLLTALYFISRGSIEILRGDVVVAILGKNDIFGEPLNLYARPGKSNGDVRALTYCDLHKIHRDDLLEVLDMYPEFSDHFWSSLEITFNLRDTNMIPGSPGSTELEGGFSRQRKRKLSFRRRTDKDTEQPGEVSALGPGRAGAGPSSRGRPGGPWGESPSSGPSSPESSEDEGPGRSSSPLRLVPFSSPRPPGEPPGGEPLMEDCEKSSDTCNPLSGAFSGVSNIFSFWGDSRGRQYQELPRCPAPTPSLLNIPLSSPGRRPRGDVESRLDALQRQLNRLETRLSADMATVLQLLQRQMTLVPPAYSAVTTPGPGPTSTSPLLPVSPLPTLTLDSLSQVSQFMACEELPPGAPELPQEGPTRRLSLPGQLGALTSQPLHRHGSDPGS"}, "kinases": {"tested_on": "kinases", "experiment": "KINOME scan profiling (Table 41)"}}, "note": "pEC50: −log10 of the molar value. “And” between values parts separate entries of the source, which are not always exact repeats. Equal entries are not always repeated. Where two headings read alike, the source gives them in different places."}
{"smiles": "CC(=O)N[C@H]1[C@H]([C@H](OC(=O)NCCCCCCCCCNC(=O)c2cc(C(=O)NCCCCCCCCCNC(=O)O[C@@H]([C@@H]3OC(C(=O)O)=C[C@H](NC(=N)N)[C@H]3NC(C)=O)[C@H](O)CO)c(C(=O)N[C@H](CC(=O)NCS(=O)(=O)O)C(=O)NCS(=O)(=O)O)cc2C(=O)N[C@H](CC(=O)NCS(=O)(=O)O)C(=O)NCS(=O)(=O)O)[C@H](O)CO)OC(C(=O)O)=C[C@@H]1NC(=N)N", "note": "[MD185, PK2PYR(Zn)2[(D-Asp)(NHCH2SO3)2]2]", "values": [{"measurement": "pEC50", "setting": "CA/07/2009", "result": 8.49}, {"measurement": "EC50", "setting": "CA/07/2009; MDCK cell line", "result": 6, "unit": "ng/mL"}, {"measurement": "EC50", "setting": "Perth/16/2009", "result": "< 0.00013 µg/mL and < 0.07 nM"}, {"measurement": "EC50", "setting": "Florida/4/2006", "result": "< 0.00013 µg/mL and < 0.07 nM"}, {"measurement": "pEC50", "setting": "A/Mississippi/03/01H274Y", "result": 9.05}, {"measurement": "EC90", "setting": "[1]", "result": "< 0.32", "unit": "ng/mL"}, {"measurement": "EC50", "setting": "[2]", "result": "< 0.32", "unit": "ng/mL"}, {"measurement": "EC90", "setting": "[3]", "result": 0.86, "unit": "ng/mL"}, {"measurement": "EC50", "setting": "[4]", "result": 0.1, "unit": "ng/mL"}, {"measurement": "EC90", "setting": "[5]", "result": 0.26, "unit": "ng/mL"}, {"measurement": "EC50", "setting": "[6]", "result": 0.15, "unit": "ng/mL"}, {"measurement": "EC90", "setting": "[7]", "result": 1.53, "unit": "ng/mL"}, {"measurement": "EC50", "setting": "[8]", "result": 6, "unit": "ng/mL"}, {"measurement": "EC50", "setting": "[9]", "result": 6.2, "unit": "ng/mL"}, {"measurement": "EC50", "setting": "[10]", "result": 6, "unit": "ng/mL"}, {"measurement": "EC50", "setting": "[11]", "result": 6.2, "unit": "ng/mL"}, {"measurement": "EC50", "setting": "CA/07/2009 virus H1N1", "result": "9.5e-05 µg/mL and 0.0514 nM"}, {"measurement": "pEC50", "setting": "A/PR/8 virus H1N1", "result": 8.37}, {"measurement": "hERG IC50", "setting": "hERG", "result": "not calculable"}, {"measurement": "Number of Hits", "setting": "kinases", "result": 0}]}
